Data as given in patent publication US10105372B2, “Methods of treating obesity using antioxidant inflammation modulators” (REATA PHARMACEUTICALS, INC., priority 2010, dated 2018).
Where “and” joins values, the source holds several entries; their conditions need not be identical. Equal values may be shown once. Entries after “also recorded” stand apart in the source; their conditions may differ. Marks after values point to notes of the source that are not given here.

Tests used:
[1] = Phase 2 clinical trial, patient body weight and tolerability; assay type: in vivo, human
Procedure: See Example 1, below. […] In this study, the protocol stipulated that patient weights were to be taken at baseline (D−1=1 day before initiation of dosing), Day 28, and Day 56. […] In this study, the protocol stipulated that patient weights were to be taken at baseline (D−1=1 day before initiation of dosing), Day 28, and Day 56. […] Prior to initiation of treatment, basic clinical observations (e.g., weight, blood pressure, height) were recorded along with baseline values for serum creatinine, blood urea nitrogen, serum phosphorus, serum uric acid, angiotensin II, fasting glucose, hemoglobin A1c, circulating endothelial cells (CECs), and iNOS-positive CECs.

[2] = Phase 2 clinical trial, renal function, glycemic control, circulating endothelial cells; assay type: in vivo, human
Excerpt: See U.S. Patent Application Publication 2009/0326063A1, which is incorporated by reference herein in its entirety. […] In this study, the protocol stipulated that patient weights were to be taken at baseline (D−1=1 day before initiation of dosing), Day 28, and Day 56. Weight data were available for all but one patient who started the study (a baseline weight was not recorded for this patient). In the remaining patients, 14 of 17 had lost weight at Day 28 (mean weight loss was 1.6% of baseline weight) and 17 of 17 had lost weight at Day 56 (mean weight loss was 3.7% of baseline, with a median of 3.1%). […] Prior to initiation of treatment, basic clinical observations (e.g., weight, blood pressure, height) were recorded along with baseline values for serum creatinine, blood urea nitrogen, serum phosphorus, serum uric acid, angiotensin II, fasting glucose, hemoglobin A1c, circulating endothelial cells (CECs), and iNOS-positive CECs. […] Reductions of more than 10% were also observed in BUN, serum creatinine, uric acid, and urinary albumin creatinine ratio.

[3] = 12-month toxicity study, body weight; assay type: in vivo, cynomolgus monkeys; settings: for % gain / kg gained: pretest to Week 50
Procedure: (§1) All the animals were healthy and within normal weights for their age at the start of the study. The dose levels were 0, 30/5, 100/30, and 300 mg/kg/day and administered at a dose volume of 3 mL per dose. The control group received the vehicle in the same manner as the treated groups. Just prior to administration, the test article for each animal was added to the syringe containing the vehicle for each animal and vortexed until thoroughly mixed to achieved the desired concentrations of 30, 100, and 300 mg/mL through Day 42 (Week 6). During administration, the syringe containing the test article preparation for each animal was pushed through the gavage tube. The 1 mL vehicle rinse was then added to the dosing syringe and administered. After administration of both volumes, a 5 mL flush of the vehicle was used to rinse the gavage tube and ensure that the entire amount of the test article was administered to the animal. […] Therefore, dose levels were adjusted so that different blood exposures could be examined. During Week 7 dosing for all animals was stopped for four days (Days 43 to 46). The initial dose levels of 30 and 100 mg/kg/day were reduced to 5 and 30 mg/kg/day, respectively, and dosing was resumed on Day 47 through Day 353. Individual doses were based on the most recent body weights.

[4] = 12-month toxicity study, whole blood exposure; assay type: in vivo, cynomolgus monkeys; settings: Days 1 and 28; 30, 100 and 300 mg/kg/day oral gavage
Procedure: as §1

[5] = Stratum 2, All Patients (n = 18), change

## COC(=O)[C@]12CCC(C)(C)C[C@H]1[C@H]1C(=O)C=C3[C@@]4(C)C=C(C#N)C(=O)C(C)(C)[C@@H]4CC[C@@]3(C)[C@]1(C)CC2 [bardoxolone methyl]
[1]; Day 28
  mean weight loss: 1.6 % of baseline weight
[1]; Day 28, 25 mg once per day
  patients who had lost weight at Day 28: 14 of 17
[1]; Day 56
  mean weight loss: 3.7 % of baseline
[1]; Day 56, of baseline
  median weight loss: 3.1%
[1]; Day 56, 25 mg/day 28 days then 75 mg/day 28 days
  patients who had lost weight at Day 56: 17 of 17
[1]; between Day −1 and Day 56
  patients who lost more than 2% of their baseline weight: all but three
[1]; individual CKD/Type 2 diabetes patients, Day 28, 25 mg once per day oral
  Weight D28: 80.7 kg and 75.7 kg and 108.9 kg (2×) and 80.3 kg and 112.9 kg and 78.9 kg and 88.5 kg and 104.3 kg and 169.3 kg and 52.6 kg and 83.5 kg and 159.7 kg and 114 kg and 92.1 kg and 89.9 kg and 88.0 kg
[1]; individual patients, Day 28 vs baseline, 25 mg/day
  Percent Change D28/D-1 (weight): 0.0% (2×) and −0.7% and −2.4% (2×) and −1.6% and −3.5% and −1.2% and −8.5% and −1.4% and −0.1% and −12.8% and −0.5% and 0.3% and −0.3% and −1.0% and −3.0%
[1]; individual patients, Day 56, 25 mg/day 28 days then escalated to 75 mg/day 28 days
  Weight D56: 75.7 kg and 74.4 kg and 107.0 kg and 78.5 kg and 97.1 kg and 108.0 kg and 111.1 kg and 77.1 kg and 88 kg and 102.1 kg and 165.9 kg and 52.2 kg and 80.3 kg and 157.9 kg and 110.4 kg and 87.1 kg
[1]; individual patients, Day 56, start dose 25 mg, escalated dose N/A
  Weight D56: 91.6 kg and 87.4 kg
[1]; individual patients, Day 56 vs baseline, 25 mg/day then escalated to 75 mg/day
  Percent Change D56/D-1 (weight): −6.2% and −2.4% and −4.1% and −3.8% and −6.9% and −3.2% and −2.8% and −10.6% and −2.0% and −2.1% and −13.4% and −4.3% and −0.8% and −3.5% and −1.0%
[1]; individual patients, Day 56 vs baseline, start dose 25 mg, escalated dose N/A
  Percent Change D56/D-1 (weight): −1.5% and −5.7%
[1]; mean of all patients, Day 28
  Weight D28, Mean: 99.4 kg
[1]; mean of all patients, Day 28 vs baseline
  Percent Change D28/D-1 (weight), Mean: −1.6%
[1]; mean of all patients, Day 56
  Weight D56, Mean: 97.3 kg
[1]; mean of all patients, Day 56 vs baseline
  Percent Change D56/D-1 (weight), Mean: −3.7%
[1]; patients with Type 2 diabetes and CKD, 56 days
  tolerability: very well tolerated
[2]; Phase 2 study
  CECs: Significant reductions
  iNOS-positive CECs: Significant reductions
  reduction in BUN: more than 10%
  reduction in serum creatinine: more than 10%
  reduction in uric acid: more than 10%
[2]; Stratum 2, All Patients (n = 18)
  Patients with eGFR Increase: 89%
[2]; [5]
  Blood Urea Nitrogen: −14.9%
  Circulating Endothelial Cells: −34.8%^†
  Creatinine Clearance: +38.2%^†
  Phosphorus: −2.5%
  Serum Creatinine: −17.5%**
  Uric Acid: −13.3%^†
  eGFR: +24.1%***
  iNOS+ Circulating Endothelial Cells: −65.8%*
[2]; Stratum 2, patients with BL ≥ 7.0%, change
  Hemoglobin A1c: −0.1%
[2]; after 28 days of treatment
  eGFR increase: approximately 10%
[2]; after 56 days of treatment
  eGFR increase compared to baseline: more than 20%
[3]; Females, 300 mg/kg/day
  Week 26 Weight: 2.552 kg
  Week 50 Weight: 2.68 kg
  % gain: 28.60%
  kg gained: 0.596 kg
[3]; Females, 30/5 mg/kg/day
  Week 26 Weight: 2.454 kg
  Week 50 Weight: 2.608 kg
  % gain: 26.05%
  kg gained: 0.539 kg
[3]; Females, 100/30 mg/kg/day
  Week 26 Weight: 2.293 kg
  Week 50 Weight: 2.68 kg
  % gain: 30.22%
  kg gained: 0.622 kg
[3]; Males, 300 mg/kg/day
  Week 26 Weight: 2.52 kg
  Week 50 Weight: 2.808 kg
  % gain: 31.15%
  kg gained: 0.667 kg
[3]; Males, 30/5 mg/kg/day
  Week 50 Weight: 2.975 kg
  % gain: 39.80%
  kg gained: 0.847 kg
[3]; Males, 30/5 mg/kg/day oral gavage
  Week 26 Weight: 2.567 kg
[3]; Males, 100/30 mg/kg/day
  Week 26 Weight: 2.464 kg
  Week 50 Weight: 2.725 kg
  % gain: 26.63%
  kg gained: 0.573 kg
[3]; healthy monkeys with normal body weights, all treated groups, 26 and 50 weeks
  effect on body weight: gained significant amounts of weight; also recorded: did not induce weight loss
[4]
  exposure in whole blood samples: no significant differences in exposure across the three dose levels
